We go through one molecule from patent US5496703A, “Indirect immunoassay for dioxinlike compounds” (priority 1993, dated 1996).

SMILES strings stand for the structures. Entries after “also recorded” stand apart in the source; their conditions may differ.

This test concerns protein tyrosylphosphorylation in X3 human lymphoblastoma cells. Nature of the test: Immunoblot / densitometry of X3 cell lysate phosphotyrosyl proteins. Type of test: cell-based. The protocol: The indicated densitometric measurements were made on a BioImage AK Kodak Visage 110.
The X3 human lymphoblastoma cells (Genetest, Wolburn, Mass.) were grown in 75 cm^2 T-flasks in RPMI 1640 medium (Gibco) containing 9% horse serum. Any cell or cell line expressing cytochrome P-450IA1 may be used. The cells were cultured at 37° C. in a 5% CO2 (balance air) environment. Cells were subcultured by centrifuging (1000 rpm, 3 minutes) and resuspended in fresh media to a volume of 50 mL (at a cell density of 1.0×10^6 cells/mL). The TCDD-corn oil solution was homogenized with serum to a final concentration of 0.10 μg/mL. The TCDD-serum was added at concentrations of 0, 0.02, 0.05, 0.1, 0.5 and 1.0 nM per flask and incubated for 16 hours. After the appropriate incubation time, the cells were harvested by centrifugation and washed three times (PBS, […]). A final cell count was then determined.
The separation of cell lysate proteins by means of SDS PAGE was performed by mixing the cell lysate 1:1 with a double strength sodium dodecyl sulfate sample buffer and heating the solution at 100° C. for 3 minutes prior to one-dimensional SDS polyacrylamide gel electrophoresis with 10% polyacrylamide. After electrophoresis, a Milliblot SDE electroblot apparatus (Millipore, Bedford, Mass.) was used to transfer the proteins from the polyacrylamide gels to an Immobilon™ membrane filter (Millipore). Complete transfers were accomplished in 25-30 min at 500 mA and were assessed by tracking pre-stained molecular weight standards onto the membrane filter. Membrane filters were blocked by incubating in TBS (Tris buffered saline) containing 5% milk for 30 minutes at 37° C. The membranes were then washed in TBST (TBS with 0.05% Tween 20) and incubated overnight with antiphoshphotyrosine monoclonal antibody (1.5 μg/mL) in TBST. The primary antibody was removed, and the membranes were washed four times in TBST. To visualize the antibody reaction, the membranes were incubated for 3 hours at 37° C. with alkaline phosphatase-conjugated antimouse IgG diluted 1:1000 in TBST, washed 3 times in TBST, and developed for 15 to 30 minutes. Determination of molecular weights of immuno-stained proteins was performed by adding molecular weight standards (Bio Rad) to reference lanes and staining the membrane filters with amido black.
An estimate of the limit of detection of dioxinlike activity can be made using the 0.2 nM dose as the minimally effective dose. At this level of administration the 57 kDalton band becomes easily visible. Assuming a 100 μL incubation well (e.g., in a 96 well microtiter plate), the diethyl ether extract would have to contain approximately 37.5 pg of dioxin equivalents to initiate a tyrosylphosphorylation of the 57 kDalton protein. This amount would be present in the extract of a 2 g sample containing 20 parts per trillion of dioxin equivalents. If the 33 kDalton protein were used to quantitate the dioxinlike activity, the limit of detection based upon a response at the EC50 of 0.04 nM, would be approximately 4 ppt. Since it is generally believed that an action concentration of dioxin is 50 ppt and current instrumental methods detect approximately 3.5 ppt, this level of analysis is sufficient for initial regulatory or health considerations.
On the technique in general: Immunoblotting shows a protein as a band on a membrane.

Take `Clc1cc2c(cc1Cl)Oc1cc(Cl)c(Cl)cc1O2` [TCDD, 2,3,7,8-tetrachlorodibenzo-p-dioxin]: the minimal effective concentration (Homo sapiens, 16 h, limit-of-detection estimate, read-out: minimally effective dose (57 kDalton band easily visible)) was 0.0002 µM. Moreover, the EC50 (commonly the concentration needed to bring the measured effect to its halfway point) (Homo sapiens, densitometry of immunoblot, 16 hours, read-out: EC50, 33 kDalton protein tyrosylphosphorylation) was found to be 0.04 nM. In addition, the “concentration of maximal 33 kDalton protein tyrosylphosphorylation” value (densitometry of immunoblot, 16 hours) stood at 0.1 nM. For the same molecule, under “immunoblot”, the “pTP at 57 kDaltons” value is reported as “highly phosphorylated at tyrosine residues; also recorded: appeared in all X3 cells treated with TCDD” and the “pTP at 110 kDaltons” value is given as “decreased with increasing TCDD concentration; also recorded: decreased in intensity”.
